In patent publication US10639345B2, “Compositions for preserving photoreceptor cells, retinal pigment epithelial cells, or visual function” (Massachusetts Eye and Ear Infirmary, priority 2010, dated 2020):

Legend:
photoreceptors [1] = test: TUNEL-positive photoreceptors in ONL after experimental retinal detachment; assay type: in vivo, rat
photoreceptors [2] = test: Normalized ONL thickness ratio after experimental retinal detachment; assay type: in vivo, rat; details: subretinal Z-VAD 300 μM and/or Nec-1 400 μM
Experimental: Photoreceptor death was also assessed by TUNEL analysis at three days after retinal detachment in retina treated with either vehicle, Nec-1, Z-VAD or Nec-1+Z-VAD. […] Nine sections for each eye specimen were randomly selected, and the central area of detached retina and the mid-peripheral region of attached retina were photographed. The ONL thickness ratio was measured at ten points in each section by masked observers. […] (GCL: ganglion cell layer, INL: inner nuclear layer. *, P<0.05. Scale bar, 100 μm). […]
TNF-α protein contents in rat retina were determined using ELISA Kit for rat TNF-α (Invitrogen, Carlsbad, Calif.). Goat anti-mouse/rat TNF-α blocking antibody was purchased from R&D Systems (Minneapolis, Minn.). The rat eyes were subretinally injected with 1% of sodium hyaluronate containing 0.1 mg/ml of anti-TNF-α antibody or control antibody.

photoreceptors [3] = test: TEM quantification of apoptotic and necrotic photoreceptor death after retinal detachment; assay type: in vivo; details: day three after retinal detachment, ONL
Experimental: The morphology of photoreceptors after retinal detachment was examined by transmission electron microscopy (TEM) and propidium iodide (PI) staining and the effect of treatment with Z-VAD and/or a Nec-1 compound of Formula I-C was analyzed.
TEM was performed as previously described (Hisatomi T et al. (2008). J. CLIN. INVEST. 118:2025-2038). […] Over 200 photoreceptors each eye were photographed and subjected to quantification of cell death modes in a masked fashion. Photoreceptors showing cellular shrinkage and nuclear condensation were defined as apoptotic cells, while photoreceptors associated with cellular and organelle swelling and discontinuities in nuclear and plasma membrane were defined as necrotic cells. The presence of electron-dense granular materials were reported to occur subsequent to both apoptotic and necrotic cell death and cells with these findings were labeled simply as end-stage cell death/unclassified (Hisatomi T et al. (2003) AM. J. PATHOL. 162:1869-1879; Erickson P A et al. (1983) INVEST. OPHTHALMOL. VIS. SCI. 24:927-942).
On day three after retinal detachment, photoreceptor death caused by apoptosis was almost twice that caused by necrosis in vehicle-treated retina (% apoptotic cells: 21.7±1.3%, necrotic cells: 13.3±1.0%, unclassified: 4.4±1.4%; FIGS. 7A and 7E).

photoreceptors [4] = test: TUNEL-positive cells after retinal detachment in RIP-3−/− mice; assay type: in vivo; details: three days after retinal detachment
Experimental: The role of RIP-3 in RIP-mediated programmed necrosis in photoreceptor loss after retinal detachment was investigated in RIP-3 knockout (RIP-3−/−) mice. TUNEL assays were used to measure the amount of apoptotic and necrotic cell death (Grasl-Kraupp et al., HEPTALOGY (1995) 21(5):1465-8). TUNEL and quantification of TUNEL positive cells in ONL were performed as described above by using the ApopTag Fluorescein In Situ Apoptosis Detection Kit (Millipore, Billerica, Mass.).

NF-κB p65 = test: Western blot for phospho-NF-κB p65 after retinal detachment; assay type: in vivo
Text: FIG. 16 is a photograph of an immunoblot from a Western blot analysis for phospho-NFκB p65 in control retina without a retinal detachment and in retina three days after retinal detachment with treatment of vehicle, Z-VAD or Z-VAD+Nec-1 (lane-loading differences were normalized by the level of β-tubulin).
The vitreous and neural retina combined was collected on day 3 after retinal detachment. Samples were run on 4-12% SDS-polyacrylamide gel electrophoresis and transferred onto PVDF membrane. After blocking with 3% nonfat dried milk, the membrane was reacted with RIP-3 (1:10000; Sigma, Saint Louis, […].), RIP-1 (1:2000; BD Biosciences), phosphoserine (1:2000; Enzo, Plymouth Meeting, Pa.) or anti-phosphorylated NF-κB p65 (1:1000; Cell signaling) antibody. Membranes were then developed with enhanced chemiluminescence. Lane-loading differences were normalized by β-tubulin (1:1000; Cell Signaling).
For Western Blot analysis, the vitreous and neural retina combined, were collected at three days after retinal detachment. Samples were run on 4-12% SDS-polyacrylamide gel electrophoresis and transferred onto PVDF membrane. After blocking with 3% nonfat dried milk, the membrane was reacted with anti-light chain 3 antibody (1:1000; Cell signaling), anti-phosphorylated ribosomal protein S6 antibody (1:1000; Cell Signaling) or anti-phosphorylated NF-κB p65 antibody (1:1000; Cell Signaling). […]

photoreceptors [5] = test: Poly I:C-induced dry AMD model, TUNEL-positive cells in ONL; assay type: in vivo, mice; details: compared with vehicle
Text: (§1) In this example, the mechanism of photoreceptor cell death in dry AMD was investigated using a polyinosinic:polycytidylic acid (Poly I:C)-induced dry AMD model (Yang et al. (2009) NEJM 359(14):1456-63). Poly I:C is a synthetic double-stranded RNA (dsRNA) analog that activates toll-like receptor 3 (TLR3) signaling (FIG. 20A). Furthermore, dsRNA are known to exist in the drusen of human AMD patients. As depicted in FIG. 20A, activation of the TLR3 signaling results in activation of RIP-1 kinase pathway. […] In the experiments described herein, 2-3 μl of Poly I:C (1 mg/ml) was injected into the subretinal space of the eye (e.g., approximately 2-3 μg of Poly I:C was administered to the eye) to induce AMD.
The thickness of the ONL was determined by the National Institutes of Health ImageJ software. […] Specifically, the number of TUNEL-positive cells in the RIP-3−/− mice treated with poly I:C was at least three fold less than control mice consistent with RIP-3 playing a role in mediating programmed necrosis in AMD (FIG. 22B).
(§2) To determine the effect of Nec-1 and a pan-caspase inhibitor in the treatment of AMD, TUNEL assay was performed to assess photoreceptor cell death in the poly I:C induced AMD model. […] The thickness of ONL was also measured.

photoreceptors [6] = test: Poly I:C-induced dry AMD model, ONL thickness; assay type: in vivo, mice
Text: as §1
The thickness of the outer nuclear layer (ONL) was also determined in WT or RIP-3−/− mice at 14 days following treatment with poly I:C. Sections were randomly selected from either WT or RIP-3−/− mice following poly I:C treatment and the retina was photographed. The ONL thickness was measured in each section by masked observers.
as §2

primary RPE cells = test: Viability of primary RPE cells treated with poly I:C (Cell Counting Kit-8); assay type: cell-based, mice; details: WT primary RPE cells, 5 μg/ml poly I:C for 48 hours
Experimental: As described in Example 11, primary RPE cells were extracted from the retina of mice and cultured in the presence of 5 μg/ml of poly I:C for 48 hours or with PBS. Cell viability was measured using Cell Counting Kit-8 (Dojindo Laboratories, Kumamoto, Japan). This assay is based on the cleavage of 2-(2-methoxy-4-nitrophenyl)-3-(4-nitrophenyl)-5-(2,4-disulfophenyl)-2H-tetrazolium, monosodium salt (WST-8) by the mitochondrial dehydrogenase enzyme to produce a formazan dye. After incubation with WST-8 for two hours at 37° C., absorbance was measured at 450 nm to determine cell viability.

photoreceptors [7] = test: Normalized ONL thickness ratio after retinal detachment in RIP-3−/− mice; details: five days after retinal detachment, RIP-3−/− mice
Experimental: TUNEL assays were used to measure the amount of apoptotic and necrotic cell death (Grasl-Kraupp et al., HEPTALOGY (1995) 21(5):1465-8). TUNEL and quantification of TUNEL positive cells in ONL were performed as described above by using the ApopTag Fluorescein In Situ Apoptosis Detection Kit (Millipore, Billerica, Mass.). The ratio of the ONL thickness to the thickness of neuroretina in the central area of the detached retina was determined by National Institutes of Health ImageJ software and standardized by that in the attached retina. The data are expressed as normalized ONL thickness ratio [(ONL/neuroretina thickness in detached retina)/(ONL/neuroretina thickness in attached retina)].

SMILES | neuroprotective effect / photoreceptor loss (TUNEL-positive photoreceptors and ONL thickness ratio) (photoreceptors [1]; day three after retinal detachment in rats, subretinal injection) | number of TUNEL-positive cells in the ONL (photoreceptors [1]; day three after retinal detachment, subretinal Z-VAD 300 μM and/or Nec-1 400 μM at detachment) [cells/mm^2] | normalized ONL thickness ratio (photoreceptors [2]; five days after retinal detachment) | normalized ONL thickness ratio (photoreceptors [2]; three days after retinal detachment) | % apoptotic cells (TEM) (photoreceptors [3]) [%] | % necrotic cells (TEM) (photoreceptors [3]) [%] | % unclassified (end-stage cell death, TEM) (photoreceptors [3]) [%] | number of TUNEL-positive cells (photoreceptors [4]) [cells/mm^2] | NF-κB p65 phosphorylation (NF-κB p65) | number of TUNEL-positive cells in ONL (photoreceptors [5]) | ONL thickness (photoreceptors [6]) | viability of RPE cells (primary RPE cells) | normalized ONL thickness ratio (photoreceptors [7])
C[C@H](NC(=O)C(=O)Nc1ccccc1C(C)(C)C)C(=O)N[C@@H](CC(=O)O)C(=O)COc1c(F)c(F)cc(F)c1F [IDN-6556, (3-{2-[(2-tert-butyl-phenylaminooxalyl)-amino]-propionylamino}-4-oxo-5-(2,3,5,6-tetrafluoro-phenoxy)-pentanoic acid)] | did not show any neuroprotective effect |  |  |  |  |  |  |  |  |  |  |  | 
CN1C(=O)NC(Cc2c[nH]c3c(Cl)cccc23)C1=O (stereo not shown) [Nec-1] |  | 1067.5±95.5 | 0.58±0.12 | 0.71±0.09 | 19.8±2.0 | 13.1±1.4 | 2.8±0.4 | 786.7±278.7 | no effect | slight effect | minimal effect | did not protect RPE cells | 0.761±0.049
